Source: patent publication US9951039B2, “Pyrimidines for treatment of bacterial infections” (The Hong Kong Polytechnic University, priority 2016, dated 2018)
In brackets after ≈: the same amount, converted by molar mass. Read-outs that look alike come from different tables or passages of the source.

Key:
[1] = test system: S. aureus strain ATCC29213; assay: MIC, broth microdilution antimicrobial susceptibility test (CLSI); format: cell-based; details: for MIC^c/MIC^b: Selectivity index: E. coli ATCC 25922 MIC over S. aureus 29213 MIC; for antibacterial activity in words (SAR analysis): MIC screening, S. aureus; for MIC: Staphylococcus aureus
Excerpt: (§1) This example illustrates the evaluation of 2,4,6-trisubstituted pyrimidines 14 for their antimicrobial activities against the Gram positive S. aureus strain ATCC29213 and the Gram negative E. coli strain ATCC25922 by measuring their MIC, which is the lowest concentration of an antimicrobial agent that prevents visible growth of a microorganism in a broth dilution susceptibility test according to the standard method approved by the Clinical and Laboratory Standards Institute (CLSI) guidelines.^21
(§2) Procedure of Antimicrobial susceptibility test: The MIC value of compounds was measured in the antimicrobial susceptibility test using the broth microdilution procedure in accordance with the CLSI guidelines.^21 Cation-adjusted Mueller Hinton broth (CA-MHB) was used for all the S. aureus strains in the assay. Cells in exponential phase of growth were diluted to approximately 5×10^5 cfu/mL. Stock solutions of each compound were freshly dissolved in dimethyl sulfoxide (DMSO). Then, serial dilutions of each compound in CA-MHB medium were added into 96-well microplate. The final percentage of DMSO in the assay was 1%. Control experiments were performed with 1% DMSO instead of the compound solution. After being incubated at 37° C. for 18 h, OD600 value of cells was measured on a microplate reader and the percentage of bacterial cell inhibition with respect to controls was calculated. The MIC value was defined as the lowest compound concentration at which the growth of bacteria was inhibited by ≥90%. Three independent assays were performed for each compound.

E. coli strain ATCC25922 = assay: as above; format: cell-based; details: E. coli ATCC 25922, growth inhibited by ≥90%, 18 h; for MIC: Escherichia coli, ATCC25922, read-out: MIC^c: Minimum inhibitory concentration against E. coli
Excerpt: as §1, §2

[2] = test system: USA300 #757 (community-associated MRSA); assay: MIC against clinically isolated strain 7; format: cell-based, S. aureus; details: Staphylococcus aureus
Procedure: as §2
(§3) Results: Three compounds, namely 14av_amine16, 14dv_amine16 and 14dv_amine06, were selected to be tested against nine in-house clinically isolated bacterial strains including S. aureus ATCC29247, which is an ampicillin resistant strain, S. aureus ATCC BAA-41, ATCC BAA-1717, ATCC BAA-1720, ATCC 43300 which are methicillin resistant strains and four USA300 strains, (#417, #757, #1799 and #2690), which are the predominant strain type of community-associated MRSA strains in the United States.

[3] = test system: S. aureus ATCC 29247 (ampicillin resistant strain); assay: MIC against clinically isolated strain 1; format: cell-based; details: Staphylococcus aureus, ATCC29247
Procedure: as §2, §3

[4] = test system: USA300 #417 (community-associated MRSA); assay: MIC against clinically isolated strain 6; format: cell-based, S. aureus; details: Staphylococcus aureus
Procedure: as §2, §3

[5] = test system: USA300 #2690 (community-associated MRSA); assay: MIC against clinically isolated strain 9; format: cell-based, S. aureus; details: Staphylococcus aureus
Procedure: as §2, §3

[6] = test system: S. aureus ATCC BAA-41 (methicillin resistant); assay: MIC against clinically isolated strain 4; format: cell-based; details: Staphylococcus aureus, ATCCBAA41
Procedure: as §2, §3

[7] = test system: S. aureus ATCC BAA-1720 (methicillin resistant); assay: MIC against clinically isolated strain 3; format: cell-based; details: Staphylococcus aureus, ATCCBAA1720
Procedure: as §2, §3

[8] = test system: S. aureus ATCC BAA-1717 (methicillin resistant); assay: MIC against clinically isolated strain 2; format: cell-based; details: Staphylococcus aureus, ATCCBAA1717
Procedure: as §2, §3

[9] = test system: S. aureus ATCC 43300 (methicillin resistant); assay: MIC against clinically isolated strain 5; format: cell-based; details: Staphylococcus aureus, ATCC43300
Procedure: as §2, §3

[10] = test system: USA300 #1799 (community-associated MRSA); assay: MIC against clinically isolated strain 8; format: cell-based, S. aureus; details: Staphylococcus aureus
Procedure: as §2, §3

[11] = S. aureus 29213, growth inhibited by ≥90%, 18 h
[12] = ATCC29213, S. aureus 29213, growth inhibited by ≥90%, 18 h, read-out: MIC^b: Minimum inhibitory concentration against S. aureus
[13] = S. aureus ATCC29213, read-out: MIC against S. aureus

Structure (SMILES)	MIC^b: Minimum inhibitory concentration against S. aureus [1, 11]	MIC^c: Minimum inhibitory concentration against E. coli (E. coli strain ATCC25922)	MIC^c/MIC^b: Selectivity index [1]	antibacterial activity in words (SAR analysis) [1]	further results
CCCCCc1cc(CCN2CCCN(Cc3ccc(C(F)(F)F)cc3)CC2)nc(-c2ccncc2)n1 [Compound 14cv_amine16]	10 µM (≈ 5.12 µg/mL)	>125 µM	>12	poor antibacterial activity	
CCC(CC)c1cc(CCN2CCCN(Cc3ccc(C(F)(F)F)cc3)CC2)nc(-c2ccccc2)n1 [Compound 14ax_amine16]				weak antibacterial activity	
CCC(CC)c1cc(CCN2CCCN(Cc3ccc(C(F)(F)F)cc3)CC2)nc(C)n1 [Compound 14aw_amine16]				weak antibacterial activity	
CCC(CC)c1cc(CCN2CCCN(CCc3ccc(C(F)(F)F)cc3)CC2)nc(-c2ccncc2)n1 [Compound 14av_amine20, 1-(2-(6-(pentan-3-yl)-2-(pyridin-4-yl)pyrimidin-4-yl)ethyl)-4-(4-(trifluoromethyl)phenethyl)-1,4-diazepane]			>15	low MIC value	MIC [1, 12]: 8 µM (≈ 4.21 µg/mL); MIC [1, 13]: 5 to 8 µM (≈ 2.63 to 4.21 µg/mL); MIC (E. coli strain ATCC25922): > 125 µM
Brc1ccc(CN2CCCN(CCc3cc(-c4ccccc4)nc(-c4ccncc4)n3)CC2)cc1 [Compound 14dv_amine08, 1-(4-bromobenzyl)-4-(2-(6-phenyl-2-(pyridin-4-yl)pyrimidin-4-yl)ethyl)-1,4-diazepane]			>25		MIC [1, 12]: 5 µM (≈ 2.64 µg/mL); MIC [1, 13]: 5 to 8 µM (≈ 2.64 to 4.23 µg/mL); MIC (E. coli strain ATCC25922): > 125 µM
CCC(CC)c1cc(CCN2CCCN(Cc3ccc(C(F)(F)F)cc3)CC2)nc(-c2cccnc2)n1 [Compound 14ay_amine16]				weak antibacterial activity	
CCC(CC)c1cc(CCN2CCCN(C(=O)c3ccc(C(F)(F)F)cc3)CC2)nc(-c2ccncc2)n1 [Compound 14av_amine19]				poor antibacterial activity	
FC(F)(F)c1ccc(CCN2CCCN(CCc3cc(-c4ccccc4)nc(-c4ccncc4)n3)CC2)cc1 [Compound 14dv_amine20, 1-(2-(6-phenyl-2-(pyridin-4-yl)pyrimidin-4-yl)ethyl)-4-(4-(trifluoromethyl)phenethyl)-1,4-diazepane]			>25		MIC [1, 12]: 5 µM (≈ 2.66 µg/mL); MIC [1, 13]: 5 to 8 µM (≈ 2.66 to 4.25 µg/mL); MIC (E. coli strain ATCC25922): > 125 µM
CCC(CC)c1cc(CCN2CCCN(Cc3cccc(C(F)(F)F)c3)CC2)nc(-c2ccncc2)n1 [Compound 14av_amine17]	16 µM (≈ 8.19 µg/mL)	>125 µM	>7		
CCC(CC)c1cc(CCN2CCN(Cc3ccc(C(F)(F)F)cc3)CC2)nc(-c2ccncc2)n1 [Compound 14av_amine24]	12 µM (≈ 5.97 µg/mL)	>125 µM	>10	poor antibacterial activity	
FC(F)(F)c1ccc(CN2CCCN(CCc3cc(-c4ccccc4)nc(-c4ccncc4)n3)CC2)cc1 [Compound 14dv_amine16, 1-(2-(6-phenyl-2-(pyridin-4-yl)pyrimidin-4-yl)ethyl)-4-(4-(trifluoromethyl)benzyl)-1,4-diazepane]			>25		MIC [2]: 10 µM (≈ 5.18 µg/mL); MIC [3]: 5 µM (≈ 2.59 µg/mL); MIC [4]: 10 µM (≈ 5.18 µg/mL); MIC [5]: 10 µM (≈ 5.18 µg/mL); MIC [6]: 10 µM (≈ 5.18 µg/mL); MIC [7]: 10 µM (≈ 5.18 µg/mL); MIC [8]: 5 µM (≈ 2.59 µg/mL); MIC [1, 12]: 5 µM (≈ 2.59 µg/mL); MIC [1, 13]: 5 to 8 µM (≈ 2.59 to 4.14 µg/mL); MIC (E. coli strain ATCC25922): > 125 µM; MIC [9]: 10 µM (≈ 5.18 µg/mL); MIC [10]: 10 µM (≈ 5.18 µg/mL)
CCC(CC)c1cc(CCN2CCCN(Cc3ccc(C(C)C)cc3)CC2)nc(-c2ccncc2)n1 [Compound 14av_amine06]	16 µM (≈ 7.77 µg/mL)	>125 µM	>7		
CC(C)c1ccc(CN2CCCN(CCc3cc(-c4ccccc4)nc(-c4ccncc4)n3)CC2)cc1 [Compound 14dv_amine06, 1-(4-isopropylbenzyl)-4-(2-(6-phenyl-2-(pyridin-4-yl)pyrimidin-4-yl)ethyl)-1,4-diazepane]			>25		MIC [2]: 10 µM (≈ 4.92 µg/mL); MIC [3]: 5 µM (≈ 2.46 µg/mL); MIC [4]: 10 µM (≈ 4.92 µg/mL); MIC [5]: 10 µM (≈ 4.92 µg/mL); MIC [6]: 10 µM (≈ 4.92 µg/mL); MIC [7]: 10 µM (≈ 4.92 µg/mL); MIC [8]: 5 µM (≈ 2.46 µg/mL); MIC [1, 12]: 5 µM (≈ 2.46 µg/mL); MIC [1, 13]: 5 to 8 µM (≈ 2.46 to 3.93 µg/mL); MIC (E. coli strain ATCC25922): > 125 µM; MIC [9]: 10 µM (≈ 4.92 µg/mL); MIC [10]: 10 µM (≈ 4.92 µg/mL)
CCC(CC)c1cc(CCN2CCCN(Cc3ccccc3C(F)(F)F)CC2)nc(-c2ccncc2)n1 [Compound 14av_amine18]	16 µM (≈ 8.19 µg/mL)	>125 µM	>7		
CCCCCc1cc(CCN2CCCN(Cc3ccc(C(C)C)cc3)CC2)nc(-c2ccncc2)n1 [Compound 14cv_amine06]	10 µM (≈ 4.86 µg/mL)	>125 µM	>12		
CCC(CC)c1cc(CCN2CCCN(Cc3ccc(C(F)(F)F)cc3)CC2)nc(-c2ccccn2)n1 [Compound 14az_amine16]				weak antibacterial activity	
CCC(CC)c1cc(CCN2CCN(Cc3cccc(C(F)(F)F)c3)CC2)nc(-c2ccncc2)n1 [Compound 14av_amine28]	10 µM (≈ 4.98 µg/mL)	>125 µM	>12		
CC(C)c1cc(CCN2CCCN(Cc3ccc(C(F)(F)F)cc3)CC2)nc(-c2ccncc2)n1 [Compound 14bv_amine16]				poor antibacterial activity	
CC(C)(C)c1ccc(CN2CCCN(CCc3cc(-c4ccccc4)nc(-c4ccncc4)n3)CC2)cc1 [Compound 14dv_amine07, 1-(4-(tert-butyl)benzyl)-4-(2-(6-phenyl-2-(pyridin-4-yl)pyrimidin-4-yl)ethyl)-1,4-diazepane]			>25		MIC [1, 12]: 5 µM (≈ 2.53 µg/mL); MIC [1, 13]: 5 to 8 µM (≈ 2.53 to 4.05 µg/mL); MIC (E. coli strain ATCC25922): > 125 µM
CCC(CC)c1cc(CCN2CCCN(Cc3ccc(C(C)(C)C)cc3)CC2)nc(-c2ccncc2)n1 [Compound 14av_amine07]	16 µM (≈ 8 µg/mL)	>125 µM	>7		

Second part, led by results:

MIC^b: Minimum inhibitory concentration against S. aureus [1, 11]	MIC^c: Minimum inhibitory concentration against E. coli (E. coli strain ATCC25922)	Structure (SMILES)	MIC^c/MIC^b: Selectivity index [1]	antibacterial activity in words (SAR analysis) [1]	further results
16 µM (≈ 8.36 µg/mL)	>125 µM	CCC(CC)c1cc(CCN2CCCN(Cc3ccc(Br)cc3)CC2)nc(-c2ccncc2)n1 [Compound 14av_amine08]	>7		
13 µM (≈ 6.22 µg/mL)	>125 µM	CCC(CC)c1cc(CCN2CCCN(Cc3ccc(Cl)cc3)CC2)nc(-c2ccncc2)n1 [Compound 14av_amine13]	>9		
10 µM (≈ 4.86 µg/mL)	>125 µM	Fc1ccc(CN2CCCN(CCc3cc(-c4ccccc4)nc(-c4ccncc4)n3)CC2)cc1F [Compound 14dv_amine12]	>12		
10 µM (≈ 4.68 µg/mL)	>125 µM	Fc1cccc(CN2CCCN(CCc3cc(-c4ccccc4)nc(-c4ccncc4)n3)CC2)c1 [Compound 14dv_amine10]	>12		
